From ChEMBL document CHEMBL4396864, “Small-Molecule Modulators of the Hypoxia-Inducible Factor Pathway: Development and Therapeutic Applications” (J Med Chem, 2019)
Each block holds one compound with its values, some of them ahead of it.

Tests used:
[1] = system: Hep 3B2; test: Downregulation of VEGF protein level in human Hep3B cells after 8 hrs by ELISA; type: functional, cell-based
[2] = molecular target: T1, CREB-binding protein/Histone acetyltransferase p300 (Homo sapiens, UniProt Q09472+Q92793); test: Inhibition of GST-tagged p300 (unknown origin)/CBP (unknown origin) protein-protein interaction by fluorescence polarization assay
[3] = molecular target: Hypoxia-inducible factor 1-alpha (Homo sapiens, UniProt Q16665); test: Inhibition of HIF-1alpha in human U373 cells; type: cell-based, U-373MG ATCC
Hypoxia-inducible factor 1-alpha, sequence (Q16665 whole entry): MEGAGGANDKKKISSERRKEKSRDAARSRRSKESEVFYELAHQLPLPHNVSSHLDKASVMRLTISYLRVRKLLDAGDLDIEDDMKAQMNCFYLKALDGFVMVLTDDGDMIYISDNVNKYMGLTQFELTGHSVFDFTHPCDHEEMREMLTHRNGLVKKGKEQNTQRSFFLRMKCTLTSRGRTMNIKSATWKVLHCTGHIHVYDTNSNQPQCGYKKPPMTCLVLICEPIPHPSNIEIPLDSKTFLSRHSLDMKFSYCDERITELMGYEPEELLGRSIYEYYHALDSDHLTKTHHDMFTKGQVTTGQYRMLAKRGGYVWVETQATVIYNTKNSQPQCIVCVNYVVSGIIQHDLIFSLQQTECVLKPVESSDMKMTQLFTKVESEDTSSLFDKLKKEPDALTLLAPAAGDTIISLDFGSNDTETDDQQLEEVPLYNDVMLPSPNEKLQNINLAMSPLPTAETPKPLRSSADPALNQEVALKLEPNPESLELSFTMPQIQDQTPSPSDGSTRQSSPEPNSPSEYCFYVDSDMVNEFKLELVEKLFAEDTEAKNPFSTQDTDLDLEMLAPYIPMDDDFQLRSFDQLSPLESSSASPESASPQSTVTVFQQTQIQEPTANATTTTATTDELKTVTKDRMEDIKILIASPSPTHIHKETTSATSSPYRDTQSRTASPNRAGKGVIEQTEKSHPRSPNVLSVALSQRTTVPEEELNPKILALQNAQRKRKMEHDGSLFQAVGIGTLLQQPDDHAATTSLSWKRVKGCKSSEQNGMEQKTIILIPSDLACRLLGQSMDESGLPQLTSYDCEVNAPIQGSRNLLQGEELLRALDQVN

[4] = molecular target: Histone acetyltransferase p300 (Homo sapiens, UniProt Q09472); test: Binding affinity to p300 (unknown origin)
Histone acetyltransferase p300, sequence (Q09472 whole entry): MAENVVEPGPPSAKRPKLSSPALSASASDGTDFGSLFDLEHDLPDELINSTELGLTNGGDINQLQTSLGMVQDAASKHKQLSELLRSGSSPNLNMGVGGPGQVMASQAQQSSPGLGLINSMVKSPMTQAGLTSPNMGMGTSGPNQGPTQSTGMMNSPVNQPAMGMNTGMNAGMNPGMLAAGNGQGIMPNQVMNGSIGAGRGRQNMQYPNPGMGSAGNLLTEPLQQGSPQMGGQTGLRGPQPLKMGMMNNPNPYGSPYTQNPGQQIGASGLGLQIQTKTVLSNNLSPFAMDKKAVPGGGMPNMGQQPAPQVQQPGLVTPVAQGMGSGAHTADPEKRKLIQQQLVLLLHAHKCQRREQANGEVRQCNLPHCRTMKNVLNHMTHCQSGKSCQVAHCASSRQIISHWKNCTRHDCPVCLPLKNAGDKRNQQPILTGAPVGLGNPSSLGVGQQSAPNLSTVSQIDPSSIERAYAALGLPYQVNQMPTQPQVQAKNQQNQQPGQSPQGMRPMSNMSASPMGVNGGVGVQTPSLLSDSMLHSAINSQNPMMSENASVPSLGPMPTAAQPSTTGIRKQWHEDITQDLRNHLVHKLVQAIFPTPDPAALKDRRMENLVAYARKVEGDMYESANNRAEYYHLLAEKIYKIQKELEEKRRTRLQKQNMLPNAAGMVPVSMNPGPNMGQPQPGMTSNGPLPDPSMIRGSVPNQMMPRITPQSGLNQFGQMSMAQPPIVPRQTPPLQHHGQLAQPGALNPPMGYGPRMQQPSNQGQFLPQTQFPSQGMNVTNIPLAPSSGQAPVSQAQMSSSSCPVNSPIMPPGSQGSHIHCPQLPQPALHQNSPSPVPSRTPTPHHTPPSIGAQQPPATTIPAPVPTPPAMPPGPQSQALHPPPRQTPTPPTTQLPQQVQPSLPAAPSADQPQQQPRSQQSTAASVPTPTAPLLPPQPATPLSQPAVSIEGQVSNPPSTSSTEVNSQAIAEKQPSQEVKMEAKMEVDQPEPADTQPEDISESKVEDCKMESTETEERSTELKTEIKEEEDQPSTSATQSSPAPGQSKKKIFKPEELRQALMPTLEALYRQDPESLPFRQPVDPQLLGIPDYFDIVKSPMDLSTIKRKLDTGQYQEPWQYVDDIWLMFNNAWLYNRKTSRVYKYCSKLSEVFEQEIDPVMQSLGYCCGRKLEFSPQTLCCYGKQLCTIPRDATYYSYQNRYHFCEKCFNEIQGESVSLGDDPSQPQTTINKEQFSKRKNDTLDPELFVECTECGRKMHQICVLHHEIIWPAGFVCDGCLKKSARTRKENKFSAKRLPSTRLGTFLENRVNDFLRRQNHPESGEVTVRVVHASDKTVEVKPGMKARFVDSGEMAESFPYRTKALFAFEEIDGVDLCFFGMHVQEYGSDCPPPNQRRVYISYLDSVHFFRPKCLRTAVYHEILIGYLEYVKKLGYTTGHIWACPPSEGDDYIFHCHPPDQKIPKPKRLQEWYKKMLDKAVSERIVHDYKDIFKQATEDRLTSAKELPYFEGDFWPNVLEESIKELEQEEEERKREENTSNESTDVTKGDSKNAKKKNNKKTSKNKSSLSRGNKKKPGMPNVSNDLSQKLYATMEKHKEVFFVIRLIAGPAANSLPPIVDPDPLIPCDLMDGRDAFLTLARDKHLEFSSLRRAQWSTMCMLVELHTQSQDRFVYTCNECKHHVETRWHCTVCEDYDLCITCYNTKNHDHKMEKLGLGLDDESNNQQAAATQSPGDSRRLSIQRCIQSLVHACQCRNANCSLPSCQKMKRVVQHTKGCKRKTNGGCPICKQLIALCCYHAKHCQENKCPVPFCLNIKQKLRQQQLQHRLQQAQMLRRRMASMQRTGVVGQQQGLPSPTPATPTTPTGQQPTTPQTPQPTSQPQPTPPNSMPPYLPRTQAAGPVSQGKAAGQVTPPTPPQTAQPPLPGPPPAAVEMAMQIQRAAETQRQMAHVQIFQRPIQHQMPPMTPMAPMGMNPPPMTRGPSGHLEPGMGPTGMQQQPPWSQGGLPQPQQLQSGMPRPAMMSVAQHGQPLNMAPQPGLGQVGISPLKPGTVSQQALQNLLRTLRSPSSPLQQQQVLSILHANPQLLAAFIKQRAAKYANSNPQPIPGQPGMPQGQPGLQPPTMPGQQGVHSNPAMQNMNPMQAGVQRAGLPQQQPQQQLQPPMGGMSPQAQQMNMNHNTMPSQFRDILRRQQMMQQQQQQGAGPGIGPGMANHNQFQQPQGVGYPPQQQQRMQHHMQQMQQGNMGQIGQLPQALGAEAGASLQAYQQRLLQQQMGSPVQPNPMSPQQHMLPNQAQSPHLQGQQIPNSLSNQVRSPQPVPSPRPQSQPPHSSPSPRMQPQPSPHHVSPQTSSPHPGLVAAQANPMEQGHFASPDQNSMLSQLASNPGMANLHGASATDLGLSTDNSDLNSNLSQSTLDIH

[5] = molecular target: T1, CREB-binding protein/Histone acetyltransferase p300; test: Inhibition of GST-tagged p300 (unknown origin)/CBP (unknown origin) protein-protein interaction; type: protein assay

SMILES: CN1C(=O)[C@@]23C[C@]4([C@]56C[C@@]78SS[C@@](CO)(C(=O)N7[C@H]5Nc5ccccc56)N(C)C8=O)c5ccccc5N[C@@H]4N2C(=O)[C@]1(CO)SS3 [CHAETOCIN]
- IC50 [1]: 100 nM

SMILES: CN1C(=O)[C@]2(Cc3ccc(CCc4ccc(C[C@@]56SS[C@@](CO)(C(=O)N5C)N(C)C6=O)cc4)cc3)SS[C@@]1(CO)C(=O)N2C
- IC50 [2]: 0.6 µM

SMILES: COc1cc([C@@H]2c3cc4c(cc3[C@@H](Nc3ccc([N+](=O)[O-])cc3)[C@H]3COC(=O)[C@H]23)OCO4)cc(OC)c1O
- IC50 [3]: 1 to 5 nM

SMILES: CN1C(=O)[C@]2(Cc3ccc(C[C@@]45SS[C@@](CO)(C(=O)N4C)N(C)C5=O)cc3)SS[C@@]1(CO)C(=O)N2C
- IC50 [2]: 1.5 µM

- Kd [4]: 690 nM
SMILES: CC(C)C[C@H](NC(=O)[C@H](C)NC(=O)[C@H](CCCNC(=N)N)NC(=O)[C@H](C)N1CC/C=C\CC(=O)N[C@@H](CCC(=O)O)C(=O)N[C@@H](CC(C)C)C1=O)C(=O)N[C@@H](CC(=O)O)C(=O)N[C@@H](CCC(N)=O)C(N)=O

- IC50 [5]: 107 µM
SMILES: CC(C)Cc1cc(CNC(=O)N2CCN(CC(=O)Nc3ccccc3Cl)CC2)nn1-c1ccccc1.Cl
